B1: P19 (peptide, listed as Homo sapiens)
chain: WTPIPVLTRWPLPHPPPWRRATSCRMARSSPSATSGSSVRRRCSSLPSWVWNLAASTRPRSTPS
B2: P76 (peptide, listed as Homo sapiens)
chain: VFFKRAAEGFFRMNKLKESSDTNPKPYCMAAPMGLTENNRNRKKSYRETNLKAVSWPLNHT
B3: P77 (peptide, listed as Homo sapiens)
chain: B2 chain

Key:
[1] = test system: CD8+ T cells in PBMCs from patients with metastatic castrate-resistant prostate cancer; test: Patient PBMC restimulation assay (TNFα+IFNγ+ CD8+ T cells); format: cell-based, human; details: 9mer peptide; for Maximum fold change over negative control: TNFα+IFNγ+CD8+ T cells, highest across PBMC donors; for Maximum frequency of TNFα+IFNγ+CD8+ T cells (Percent): greatest frequency among all tested PBMC donors
Description: PBMCs from human patients with metastatic castrate-resistant prostate cancer were thawed using media (RPMI 1640 supplemented with Glutamax, 10% HI FBS, and IX Sodium Pyruvate). Cells were counted and plated in a 96 well round bottom microplate at a concentration of 250,000 viable cells per well. Lyophilized peptides were solubilized in 100% DMSO and diluted in media to 10 μg/mL. Neoantigen peptides were added in equal volume to PBMCs for a final concentration of 5 μg/mL. CEF Peptide Pool “Plus” (Cellular Technologies, Ltd.) was utilized as a positive control and DMSO at the same final concentration as the experimental peptides was utilized as a negative control. Human IL-15 (Peprotech) was added to all wells at final concentration of 10 ng/mL.
Plates were incubated at 37° C. (5% CO2) for a total of 13 days. Media was refreshed every 2 days with IL-15 (10 ng/mL final concentration) and IL-2 (R&D systems, 10 IU/mL final concentration). On day 12, PBMCs were re-stimulated with identical experimental peptides or controls, at same concentration as peptide stimulation on Day 1. After 1-hour incubation, protein Inhibitor Cocktail (eBioscience) was added to every well and plate was incubated overnight.
On day 13, cells were stained for intracellular flow cytometry analysis. The cells were washed with PBS and stained with Live/Dead Fixable Aqua Dead Cell stain (ThermoFisher). Following the live/dead stain, cells were blocked using Biotin-Free Fc Receptor Blocker (Accurate Chemical & Scientific Corp). Extracellular cellular flow panel (1 μL/antibody per well in 50 μL) consisted of CD3 PerCP-Cy5.5 (Biolegend), CD4 BV421 (Biolegend), and CD8 APC-Cy7 (Biolegend). After extracellular staining, cells were fixed using Foxp3/Transcription Factor Staining Buffer Set (eBioscience) and stained for intracellular proteins (1:50 dilution) using TNFα FITC (R&D Systems) and IFNγ BV785 (Biolegend). Cells were washed and resuspended in stain buffer and analyzed using a BD Celesta flow cytometer.
Flow cytometry cell staining analysis was completed using Flow Jo v10. Cells were gated on live, singlet, CD3+ cells. The CD8+ T cells were analyzed for TNFα/IFNγ expression and the frequency of double positive TNFα/IFNγ CD8+ T cells was recorded. Responses were assessed to be positive when the frequency of double positive TNFα/IFNγ CD8+ T cells due to stimulation with an experimental peptide was increased greater than or equal to 2-fold over the DMSO only negative control for that patient. Peptides were analyzed in 1 to 7 patient samples.
The 9 mer fragments shown in Table 13 were assessed for their ability to activate T cells using the Patient PBMC restimulation assay described in Example 1 using TNFα and IFNγ production by CD8^+ T cells as a readout. Self-antigens shown in Table 15 were also used in the assays. […] PBMCs from ten patients were evaluated.

HLA-B*07:02 = HLA-B*07:02 (Homo sapiens, UniProt P01889); test: In vitro binding to class I MHC (UV peptide exchange, HLA class I ELISA); details: 100% = same binding as positive control peptide
Description: (§1) The 9 mer peptides identified by bioinformatics analysis were analyzed for their binding propensities to 6 common HLA class I alleles (HLA-A*01:01, A*02:01, A*03:01, A*24:02, B*07:02, B*08:01). The principle of the method is briefly described below and consists of two parts, one involving exchange of peptide with a positive control induced by Ultraviolet (UV) radiation, and the second is an enzyme immunoassay to detect stable HLA-peptide and empty HLA complexes. HLA-bound peptides are critical for the stability of the HLA complex. A conditional HLA class I complex was stabilized by an UV-labile peptide utilizing a different peptide (Pos) for each HLA (Pos: HLA-A*01:01: […](SEQ ID NO: 409), HLA-A*02:01: […] (SEQ ID NO: 410), HLA-A*03:01: […] (SEQ ID NO: 411), HLA-A*24:02: […] (SEQ ID NO: 412), HLA-B*07:02: […] (SEQ ID NO: 413), HLA-B*08:01: […] (SEQ ID NO: 414), which could be cleaved by UV irradiation when bound to the HLA molecule. Upon cleavage, the resulting peptide fragments dissociated from the HLA class I complex since their length was insufficient to bind stably to HLA. Under the conditions in which peptide cleavage was performed (neutral pH, on melting ice), the peptide-free HLA complex remained stable.
(§2) The exchange efficiency between the peptide of interest and Pos was analyzed using an HLA class I ELISA. The combined technologies allowed the identification of ligands for an HLA molecule of interest which are potentially immunogenic.
(§3) Exchange control peptide Pos was a high affinity binder to the relevant HLA class I allele while exchange control peptide Neg was a non-binder. The UV control represented UV-irradiation of conditional HLA class I complex in the absence of a rescue peptide.
(§4) The HLA class I ELISA is an enzyme immunoassay based on the detection of beta2-microglobulin (B2M) of (peptide-stabilized) HLA class I complexes. To this end streptavidin was bound onto polystyrene microtiter wells. After washing and blocking, HLA complex present in exchange reaction mixtures or ELISA controls was captured by the streptavidin on the microtiter plate via its biotinylated heavy chain. Non-bound material was removed by washing. Subsequently, horseradish peroxidase (HRP)-conjugated antibody to human B2M was added. The HRP-conjugated antibody binds only to an intact HLA complex present in the microtiter well because unsuccessful peptide exchange results in disintegration of the original UV-sensitive HLA complex upon UV illumination. In the latter case B2M was removed during the washing step. After removal of non-bound HRP conjugate by washing, a substrate solution was added to the wells. A colored product formed in proportion to the amount of intact HLA complex present in the samples. After the reaction was terminated by the addition of a stop solution, absorbance was measured in a microtiter plate reader. The absorbance was normalized to the absorbance of an exchange control peptide (represents 100%). Suboptimal HLA binding of peptides with a moderate to low affinity for HLA class I molecules can also be detected by this ELISA technique (Rodenko, B et al. (2006) Nature Protocols 1: 1120-32).
(§5) Peptides that had 10% or greater exchange efficiency in one of the 6 HLA alleles were considered for further immunogenicity testing and analysis.
(§6) Binding of select neoepitopes to HLA-A*01:01, HLA-A*02:01, HLA-A*03:01, HLA-A*24:02, HLA-B*07:02 and HLA-B*08:01 was evaluated using the assay described in Example 1. […] As a criterion for further evaluation, peptides with an exchange rate of at least 10% with the corresponding Pos peptide for at least one of the 6 HLA alleles that we considered for further evaluation. The exchange rates with the allele specific Pos peptides, of the 24 neoantigens so identified are summarized below in Table 17. Higher percentages correspond to stronger binding to the HLA allele.

HLA-A*02:01 = HLA-A*02:01 (Homo sapiens, UniProt P04439, D140Y/D185E/D98H/E176V/E277Q/G131W/G231S/I119V/I121R/I166T/I218V/L300P/L318F/N151K/N90K/P208A/P217A/Q86G/Q94H/R138H/R169H/T345S); test: as above; details: 100% = same binding as positive control peptide
Description: as §1, §2, §3, §4, §5, §6

HLA-A*03:01 = HLA-A*03:01 (Homo sapiens, UniProt P04439); test: as above; details: 100% = same binding as positive control peptide
Description: as §1, §2, §3, §4, §5, §6

HLA-A*24:02 = HLA-A*24:02 (Homo sapiens, UniProt P04439, D101N/D140Y/D185E/E176V/E190D/F33S/G103R/G107R/I119L/I121M/I306V/K335N/L105A/L180Q/L300P/N151K/N90K/Q86E/Q94H/R106L/R138H/R89G/T104I/T345S/V100E/W191G/Y123F); test: as above; details: 100% = same binding as positive control peptide
Description: as §1, §2, §3, §4, §5, §6

HLA-A*01:01 = HLA-A*01:01 (Homo sapiens, UniProt P04439, A114D/A174V/A182V/D101N/D185E/E176A/E190D/L180R/Q94H/R68K/S129P/T187R/V100A/V91M/W191G); test: as above; details: 100% = same binding as positive control peptide
Description: as §1, §2, §3, §4, §5, §6

HLA-B*08:01 = HLA-B*08:01 (Homo sapiens, UniProt P01889, A93T/A95T/D138N/E176V/E187T/K202T/Q94N/R180D/S35A/V36M/Y33D/Y91F); test: as above; details: 100% = same binding as positive control peptide
Description: as §1, §2, §3, §4, §5, §6

Molecule	Maximum frequency of TNFα+IFNγ+CD8+ T cells (Percent) [1] [%]	also measured
SLYHREKQLIAMDSAI (listed as Homo sapiens) [Neoantigen P22]	0.120	Maximum fold change over negative control [1]: 5.00; Exchange rate with allele specific Pos peptide, HLA-B*07:02 (HLA-B*07:02): 8.3%
YEAGMTLGEKFRVGNCKHLKMTRP (listed as Homo sapiens) [Neoantigen P82]	0.970	–
P50 (QMAVIQYSCMGLMVFAM; listed as Homo sapiens) [Neoantigen P50]	0.190	–
YEAGMTLGGKILFFLFLLLPLSPFSLIF (listed as Homo sapiens) [Neoantigen P87]	0.120	–
P37 (MAGGVLRRLLCREPDRDGDKGASREETVVPLHIGDPVVLPGIGQCYSALF; listed as Homo sapiens) [Neoantigen P37]	1.160	–
P17 (GVPGDSTRRAVRRMNTF; listed as Homo sapiens) [Neoantigen P17]	0.130	–
P73 (DSSGNLLERNSFEVRV; listed as Homo sapiens) [Neoantigen P73]	0.110	–
P59 (LHPDSGNMVENGCYLRR; listed as Homo sapiens) [Neoantigen P59]	3.010	–
P58 (MMAEIISVHVPKILSGK; listed as Homo sapiens) [Neoantigen P58]	5.370	–
P60 (CYLRRQKRLKCEKQPGA; listed as Homo sapiens) [Neoantigen P60]	0.340	–
P98: peptide used for stimulation of PBMC samples (FIG. 5D); sequence in a table not shown (DDRNTFDIVWWCPMSRLRLALTVPPSTTTTCVTVPAWAA; listed as Homo sapiens) [Neoantigen P98]	1.000	Maximum fold change over negative control [1]: 14.93; Exchange rate with allele specific Pos peptide, HLA-B*07:02 (HLA-B*07:02): 6.7%; Exchange rate with allele specific Pos peptide, HLA-A*02:01 (HLA-A*02:01): 7.9%; Exchange rate with allele specific Pos peptide, HLA-A*03:01 (HLA-A*03:01): 51.1%; Exchange rate with allele specific Pos peptide, HLA-A*24:02 (HLA-A*24:02): −0.1%; Exchange rate with allele specific Pos peptide, HLA-A*01:01 (HLA-A*01:01): 2.5%; Exchange rate with allele specific Pos peptide, HLA-B*08:01 (HLA-B*08:01): 2.4%
P27 (LHPQRETFTPRWSGANYWKLAFPVGAEGTFPAAATQRGVVRPA; listed as Homo sapiens) [Neoantigen P27]	0.430	–
P56 (PKSEVRAKCKFSILNAK; listed as Homo sapiens) [Neoantigen P56]	1.620	–
P48 (VQPIARELYQFTFDLLI; listed as Homo sapiens) [Neoantigen P48]	0.220	–
GVPGDSTRRAVRRMNTF (listed as Homo sapiens) [Neoantigen P16]	4.620	–
P46 (DDRNTFDIVWWCPMSRLRLALTVPPSTTTTCVTVPAWAA; listed as Homo sapiens) [Neoantigen P46]	0.140	–
P61 (MFENGCYLGRQKRFKCE; listed as Homo sapiens) [Neoantigen P61]	0.084	–
NSKMALNSLNSIDDAQLTRIAPPRSHCCFWEVNAP (listed as Homo sapiens) [Neoantigen P35]	0.064	–
P97 (GYLRMQGLMAQRLLLR; listed as Homo sapiens) [Neoantigen P97]	0.160	–
B1	0.480	–
B2	0.170	Maximum fold change over negative control [1]: 2.30
B3	0.160	Maximum fold change over negative control [1]: 3.24
